Measurements taken from PubChem BioAssay AID1918935 (Molecular Pharmacology Branch, DTP, NCI, 2023).

Test system: 324938-238-R-J1-PDC complex spheroid viability
Experiment: Anticancer human tumor 324938-238-R-J1-PDC patient-derived bladder carcinoma cell line growth inhibition
Details: for IC50: curve of first compound; for viability, T/C: stronger effect = lower value
Procedure, shortened: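 Complex spheroids of tumor cells with HUVEC and human MSCs, exposed to iadademstat combined with other agents. Each agent tested in half-log steps from near clinical Cmax (else 10 microM top), DMSO ≤0.25%.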

[1] = second compound 0.1 µM, first compound 0.000316 µM
[2] = second compound 0.1 µM, first compound 0.001 µM
[3] = second compound 0.1 µM, first compound 0.00316 µM
[4] = second compound 0.1 µM, first compound 0.01 µM
[5] = second compound 0.1 µM, first compound 0.0316 µM
[6] = second compound 0.1 µM, first compound 0.1 µM
[7] = second compound 0.316 µM, first compound 0.000316 µM
[8] = second compound 0.316 µM, first compound 0.001 µM
[9] = second compound 0.316 µM, first compound 0.00316 µM
[10] = second compound 0.316 µM, first compound 0.01 µM
[11] = second compound 0.316 µM, first compound 0.0316 µM
[12] = second compound 0.316 µM, first compound 0.1 µM
[13] = second compound 1 µM, first compound 0.000316 µM
[14] = second compound 1 µM, first compound 0.001 µM
[15] = second compound 1 µM, first compound 0.00316 µM
[16] = second compound 1 µM, first compound 0.01 µM
[17] = second compound 1 µM, first compound 0.0316 µM
[18] = second compound 1 µM, first compound 0.1 µM
[19] = second compound 3.16 µM, first compound 0.000316 µM
[20] = second compound 3.16 µM, first compound 0.001 µM
[21] = second compound 3.16 µM, first compound 0.00316 µM
[22] = second compound 3.16 µM, first compound 0.01 µM
[23] = second compound 3.16 µM, first compound 0.0316 µM
[24] = second compound 3.16 µM, first compound 0.1 µM
[25] = second compound 10 µM, first compound 0.000316 µM
[26] = second compound 10 µM, first compound 0.001 µM
[27] = second compound 10 µM, first compound 0.00316 µM
[28] = second compound 10 µM, first compound 0.01 µM
[29] = second compound 10 µM, first compound 0.0316 µM
[30] = second compound 10 µM, first compound 0.1 µM
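Note: spheroids also contain HUVEC and human MSCs and agents combined with iadademstat; spheroids exposed to agents for 7 days before readout.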

CC(C)CC(NC(=O)C(Cc1ccccc1)NC(=O)c1cnccn1)B(O)O (stereo not given) + NC1CCC(NC2CC2c2ccccc2)CC1
IC50 (second compound 0.1 µM): 0.472 nM
IC50 (second compound 0.316 µM): 0.443 nM
IC50 (second compound 1 µM): 0.483 nM
IC50 (second compound 3.16 µM): 0.442 nM
IC50 (second compound 10 µM): 0.434 nM
viability, T/C [1]: 66.8%
viability, T/C [2]: 18.7%
viability, T/C [3]: 0.06%
viability, T/C [4]: 0.03%
viability, T/C [5]: 0.03%
viability, T/C [6]: 0.15%
viability, T/C [7]: 64.9%
viability, T/C [8]: 14.3%
viability, T/C [9]: 0.14%
viability, T/C [10]: 0.01%
viability, T/C [11]: 0.02%
viability, T/C [12]: 0.12%
viability, T/C [13]: 72.2%
viability, T/C [14]: 12.1%
viability, T/C [15]: 0.1%
viability, T/C [16]: 0.01%
viability, T/C [17]: 0.73%
viability, T/C [18]: 0.11%
viability, T/C [19]: 65%
viability, T/C [20]: 13.8%
viability, T/C [21]: 0.43%
viability, T/C [22]: 0.02%
viability, T/C [23]: 0.03%
viability, T/C [24]: 0.12%
viability, T/C [25]: 65%
viability, T/C [26]: 10.8%
viability, T/C [27]: 0.12%
viability, T/C [28]: 0.29%
viability, T/C [29]: 0.1%
viability, T/C [30]: 0.17%

CC(C)CC(NC(=O)CNC(=O)c1cc(Cl)ccc1Cl)B1OC(=O)CC(CC(=O)O)(C(=O)O)O1 (stereo not given) + NC1CCC(NC2CC2c2ccccc2)CC1
IC50 (second compound 0.1 µM): 2.3 nM
IC50 (second compound 0.316 µM): 1.97 nM
IC50 (second compound 1 µM): 1.98 nM
IC50 (second compound 3.16 µM): 1.72 nM
IC50 (second compound 10 µM): 1.75 nM
viability, T/C [1]: 78.5%
viability, T/C [2]: 76.7%
viability, T/C [3]: 39.9%
viability, T/C [4]: 5.51%
viability, T/C [5]: 0.09%
viability, T/C [6]: 0.14%
viability, T/C [7]: 88.5%
viability, T/C [8]: 68.9%
viability, T/C [9]: 37.8%
viability, T/C [10]: 6.24%
viability, T/C [11]: 0.11%
viability, T/C [12]: 0.14%
viability, T/C [13]: 87.1%
viability, T/C [14]: 62.5%
viability, T/C [15]: 44.2%
viability, T/C [16]: 5.29%
viability, T/C [17]: 0.06%
viability, T/C [18]: 0.13%
viability, T/C [19]: 80.2%
viability, T/C [20]: 65.2%
viability, T/C [21]: 33%
viability, T/C [22]: 3.57%
viability, T/C [23]: 0.05%
viability, T/C [24]: 0.16%
viability, T/C [25]: 78.3%
viability, T/C [26]: 76.2%
viability, T/C [27]: 22.7%
viability, T/C [28]: 2.57%
viability, T/C [29]: 0.13%
viability, T/C [30]: 0.21%

COc1cc(Nc2ncc3c(n2)-c2ccc(Cl)cc2C(c2c(F)cccc2OC)=NC3)ccc1C(=O)O + NC1CCC(NC2CC2c2ccccc2)CC1
IC50 (second compound 0.1 µM): 20.8 nM
IC50 (second compound 0.316 µM): 18.8 nM
IC50 (second compound 1 µM): 18.5 nM
IC50 (second compound 3.16 µM): 15.4 nM
IC50 (second compound 10 µM): 20.7 nM
viability, T/C [3]: 75.9%
viability, T/C [4]: 67.5%
viability, T/C [5]: 39.9%
viability, T/C [6]: 23%
viability, T/C (second compound 0.1 µM, first compound 0.316 µM): 20.4%
viability, T/C (second compound 0.1 µM, first compound 1 µM): 17.9%
viability, T/C [9]: 79.8%
viability, T/C [10]: 65.7%
viability, T/C [11]: 37.4%
viability, T/C [12]: 20.5%
viability, T/C (second compound 0.316 µM, first compound 0.316 µM): 18.3%
viability, T/C (second compound 0.316 µM, first compound 1 µM): 20.9%
viability, T/C [15]: 73.3%
viability, T/C [16]: 63.5%
viability, T/C [17]: 38.5%
viability, T/C [18]: 19.6%
viability, T/C (second compound 1 µM, first compound 0.316 µM): 21.9%
viability, T/C (second compound 1 µM, first compound 1 µM): 19.4%
viability, T/C [21]: 74.2%
viability, T/C [22]: 56.1%
viability, T/C [23]: 39.9%
viability, T/C [24]: 24.9%
viability, T/C (second compound 3.16 µM, first compound 0.316 µM): 21.7%
viability, T/C (second compound 3.16 µM, first compound 1 µM): 21.2%
viability, T/C [27]: 70.7%
viability, T/C [28]: 65.3%
viability, T/C [29]: 40%
viability, T/C [30]: 31%
viability, T/C (second compound 10 µM, first compound 0.316 µM): 22.7%
viability, T/C (second compound 10 µM, first compound 1 µM): 23.1%

O=C(C=Cc1cccc(S(=O)(=O)Nc2ccccc2)c1)NO + NC1CCC(NC2CC2c2ccccc2)CC1
IC50 (second compound 0.1 µM): 103 nM
IC50 (second compound 0.316 µM): 101 nM
IC50 (second compound 1 µM): 41.7 nM
IC50 (second compound 3.16 µM): 47.2 nM
IC50 (second compound 10 µM): 10.4 nM
viability, T/C (second compound 0.1 µM, first compound 0.00949 µM): 68%
viability, T/C (second compound 0.1 µM, first compound 0.03 µM): 59.9%
viability, T/C (second compound 0.1 µM, first compound 0.0949 µM): 51.5%
viability, T/C (second compound 0.1 µM, first compound 0.3 µM): 37.4%
viability, T/C (second compound 0.1 µM, first compound 0.949 µM): 26.7%
viability, T/C (second compound 0.1 µM, first compound 3 µM): 7.18%
viability, T/C (second compound 0.316 µM, first compound 0.00949 µM): 61.6%
viability, T/C (second compound 0.316 µM, first compound 0.03 µM): 63.2%
viability, T/C (second compound 0.316 µM, first compound 0.0949 µM): 50.4%
viability, T/C (second compound 0.316 µM, first compound 0.3 µM): 34.6%
viability, T/C (second compound 0.316 µM, first compound 0.949 µM): 25.9%
viability, T/C (second compound 0.316 µM, first compound 3 µM): 5.69%
viability, T/C (second compound 1 µM, first compound 0.00949 µM): 64.6%
viability, T/C (second compound 1 µM, first compound 0.03 µM): 49.9%
viability, T/C (second compound 1 µM, first compound 0.0949 µM): 40.8%
viability, T/C (second compound 1 µM, first compound 0.3 µM): 32.1%
viability, T/C (second compound 1 µM, first compound 0.949 µM): 26%
viability, T/C (second compound 1 µM, first compound 3 µM): 3.87%
viability, T/C (second compound 3.16 µM, first compound 0.00949 µM): 65.3%
viability, T/C (second compound 3.16 µM, first compound 0.03 µM): 53.5%
viability, T/C (second compound 3.16 µM, first compound 0.0949 µM): 40%
viability, T/C (second compound 3.16 µM, first compound 0.3 µM): 33.8%
viability, T/C (second compound 3.16 µM, first compound 0.949 µM): 24.7%
viability, T/C (second compound 3.16 µM, first compound 3 µM): 4.61%
viability, T/C (second compound 10 µM, first compound 0.00949 µM): 52.7%
viability, T/C (second compound 10 µM, first compound 0.03 µM): 47.2%
viability, T/C (second compound 10 µM, first compound 0.0949 µM): 42.2%
viability, T/C (second compound 10 µM, first compound 0.3 µM): 34.4%
viability, T/C (second compound 10 µM, first compound 0.949 µM): 30.8%
viability, T/C (second compound 10 µM, first compound 3 µM): 3.5%
